Data reported in US7605178B2, “Therapeutic compounds” (Allergan, Inc., priority 2006, dated 2009).

What was measured:
hDP = molecular target: T1, hDP (Homo sapiens, UniProt Q13258); assay: Other receptors: hDP functional EC50; format: cell-based
T1 sequence (Q13258 1-359): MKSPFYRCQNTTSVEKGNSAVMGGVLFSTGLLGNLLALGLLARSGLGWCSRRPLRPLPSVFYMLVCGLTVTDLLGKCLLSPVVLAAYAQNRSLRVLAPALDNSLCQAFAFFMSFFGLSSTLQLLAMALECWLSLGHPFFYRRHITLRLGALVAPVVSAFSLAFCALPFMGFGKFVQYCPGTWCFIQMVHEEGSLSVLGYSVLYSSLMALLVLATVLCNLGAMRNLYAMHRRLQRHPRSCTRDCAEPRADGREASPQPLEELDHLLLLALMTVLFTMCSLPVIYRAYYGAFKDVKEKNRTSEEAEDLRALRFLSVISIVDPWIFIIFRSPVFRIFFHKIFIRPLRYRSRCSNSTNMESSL
From the text: (§1) U.S. patent application Ser. No. 11/553,143, filed on Oct. 26, 2006, incorporated by reference herein, describes the methods used to obtain the in vitro data in the table below.

EP2 [1] = molecular target: T2, EP2 (Homo sapiens, UniProt P43116); assay: EP2 cAMP; format: cell-based
T2 sequence (P43116 whole entry): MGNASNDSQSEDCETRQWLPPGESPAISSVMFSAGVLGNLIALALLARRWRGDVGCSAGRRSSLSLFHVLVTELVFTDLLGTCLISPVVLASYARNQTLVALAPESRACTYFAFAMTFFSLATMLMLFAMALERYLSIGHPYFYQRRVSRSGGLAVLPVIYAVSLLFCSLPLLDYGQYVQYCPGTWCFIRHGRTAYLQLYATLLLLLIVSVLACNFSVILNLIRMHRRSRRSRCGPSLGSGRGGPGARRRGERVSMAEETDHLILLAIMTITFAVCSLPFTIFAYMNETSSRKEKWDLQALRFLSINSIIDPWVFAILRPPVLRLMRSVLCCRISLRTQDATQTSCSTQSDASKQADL
From the text: as §1

EP2 [2] = molecular target: T2, EP2; assay: EP2 binding (Ki)
From the text: as §1

hEP3A = molecular target: T3, hEP3A (Homo sapiens, UniProt P43115); assay: Other receptors: hEP3A functional EC50; format: cell-based
T3 sequence (P43115 1-390): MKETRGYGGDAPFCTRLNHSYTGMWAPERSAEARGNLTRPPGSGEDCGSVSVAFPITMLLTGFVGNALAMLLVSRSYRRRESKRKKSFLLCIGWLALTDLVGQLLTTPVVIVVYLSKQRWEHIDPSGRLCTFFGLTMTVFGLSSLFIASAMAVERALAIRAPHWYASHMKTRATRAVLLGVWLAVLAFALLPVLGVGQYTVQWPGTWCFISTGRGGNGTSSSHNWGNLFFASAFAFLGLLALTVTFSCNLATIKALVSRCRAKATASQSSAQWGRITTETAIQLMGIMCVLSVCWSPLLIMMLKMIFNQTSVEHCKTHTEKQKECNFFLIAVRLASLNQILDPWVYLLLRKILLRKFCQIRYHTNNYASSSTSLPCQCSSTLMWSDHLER
From the text: as §1

EP2 [3] = molecular target: T2, EP2; assay: EP2 flipr; format: cell-based
From the text: as §1

EP4 [4] = molecular target: T4, EP4 (Homo sapiens, UniProt P35408); assay: EP4 binding (KI)
T4 sequence (P35408 whole entry): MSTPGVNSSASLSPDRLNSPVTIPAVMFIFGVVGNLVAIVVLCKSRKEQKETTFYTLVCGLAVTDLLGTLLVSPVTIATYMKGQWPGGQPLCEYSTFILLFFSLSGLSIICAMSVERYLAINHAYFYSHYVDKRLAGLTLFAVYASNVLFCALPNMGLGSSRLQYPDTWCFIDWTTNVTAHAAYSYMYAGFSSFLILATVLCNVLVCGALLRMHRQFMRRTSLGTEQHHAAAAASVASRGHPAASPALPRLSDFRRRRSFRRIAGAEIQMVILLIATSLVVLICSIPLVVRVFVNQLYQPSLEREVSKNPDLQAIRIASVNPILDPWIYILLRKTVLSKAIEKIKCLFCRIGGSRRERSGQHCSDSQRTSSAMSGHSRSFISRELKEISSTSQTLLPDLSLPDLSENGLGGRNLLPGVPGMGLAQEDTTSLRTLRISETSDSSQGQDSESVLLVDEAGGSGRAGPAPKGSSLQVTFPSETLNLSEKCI
From the text: as §1

hIP = hIP (Homo sapiens, UniProt P43119); assay: Other receptors: hIP functional EC50; format: cell-based
Sequence of hIP (P43119 whole entry): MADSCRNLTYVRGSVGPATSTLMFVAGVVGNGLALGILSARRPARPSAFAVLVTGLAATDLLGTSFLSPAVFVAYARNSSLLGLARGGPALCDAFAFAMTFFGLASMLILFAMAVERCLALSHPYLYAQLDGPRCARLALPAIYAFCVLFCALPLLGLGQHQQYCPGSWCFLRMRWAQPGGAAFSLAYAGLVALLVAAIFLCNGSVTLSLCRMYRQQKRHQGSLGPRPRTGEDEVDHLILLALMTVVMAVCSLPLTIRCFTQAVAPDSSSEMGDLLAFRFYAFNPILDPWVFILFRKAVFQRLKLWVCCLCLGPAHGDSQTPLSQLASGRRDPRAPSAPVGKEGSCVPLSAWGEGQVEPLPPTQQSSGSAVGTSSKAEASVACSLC
From the text: as §1

hTP = molecular target: T5, hTP (Homo sapiens, UniProt P21731); assay: Other receptors: hTP functional EC50; format: cell-based
T5 sequence (P21731 1-343): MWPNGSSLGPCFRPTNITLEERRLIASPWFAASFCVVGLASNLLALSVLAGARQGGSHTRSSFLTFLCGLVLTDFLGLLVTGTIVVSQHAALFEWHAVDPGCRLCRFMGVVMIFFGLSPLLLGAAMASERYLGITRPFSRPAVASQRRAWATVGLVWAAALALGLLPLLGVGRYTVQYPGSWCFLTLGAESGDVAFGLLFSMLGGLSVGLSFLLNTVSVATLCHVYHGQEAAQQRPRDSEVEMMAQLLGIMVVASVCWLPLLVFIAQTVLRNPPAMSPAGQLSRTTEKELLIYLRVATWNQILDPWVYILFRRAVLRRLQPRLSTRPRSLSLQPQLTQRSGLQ
From the text: as §1

EP4 [5] = molecular target: T4, EP4; assay: EP4 flipr; format: cell-based
From the text: as §1

normotensive dogs = assay: Intraocular pressure and ocular surface hyperemia in normotensive dogs; format: in vivo; settings: 0.01%, once daily for 5 days
Experimental: (§2) U.S. Pat. No. 7,091,231 describes the methods used for these in vivo tests.
5-(3-((1R,2R,3R,5R)-5-chloro-2-((3,5-dichlorophenylthio)methyl)-3-hydroxycyclopentyl)propyl)-thiophene-2-carboxylic acid (20) was tested in normotensive dogs at 0.01%, dosing once daily for 5 days. The maximum intraocular pressure (IOP) decrease from baseline was 6.3 mmHg (35%) at 6 h; the maximum ocular surface hyperemia (OSH) score was 1.7 at 52 h.

[6] = system: laser-induced hypertensive monkeys; assay: Intraocular pressure in laser-induced hypertensive monkeys; format: in vivo; settings: 0.01%, one single day dose, at 24 h
Experimental: as §2
The composition and dosage regimen of In vivo example 1 was also tested in laser-induced hypertensive monkeys, using one single day dose. At 0.01%, the maximum IOP decrease from baseline was 13.9 mmHg (40%) at 24 h.

| EC50 (hDP) [nM] | EC50 (EP2 [1]) [nM] | Ki (EP2 [2]) [nM] | EC50 (hEP3A) [nM] | EC50 (EP2 [3]) [nM] | Ki (EP4 [4]) [nM] | EC50 (hIP) [nM] | EC50 (hTP) [nM] | EC50 (EP4 [5]) [nM] | maximum ocular surface hyperemia (OSH) score (normotensive dogs; at 52 h) | SMILES | maximum intraocular pressure (IOP) decrease from baseline (percent) (normotensive dogs; at 6 h) [%] | maximum IOP decrease from baseline [6] [mmHg] | maximum IOP decrease from baseline (percent) [6] [%] |
| --- | --- | --- | --- | --- | --- | --- | --- | --- | --- | --- | --- | --- | --- |
| > 10000 | 0.4 | 22 | > 10000 | 3360 | 376 | > 10000 | 1720 | > 10000 |  | O=C(O)CCC/C=C\C[C@@H]1[C@@H](CSc2cc(Cl)cc(Cl)c2)[C@H](O)C[C@H]1Cl [compound 5, (Z)-7-[(1R,2R,3R,5R)-5-Chloro-2-(3,5-dichloro-phenylsulfanylmethyl)-3-hydroxy-cyclopentyl]-hept-5-enoic acid] |  |  |  |
|  | 29 | 2090 |  | 6370 | > 10000 | > 10000 | 2680 |  |  | CC(=O)N(C[C@@H]1[C@@H](C/C=C\CCCC(=O)O)[C@H](Cl)C[C@H]1O)c1cc(Cl)cc(Cl)c1 [compound 10, (Z)-7-((1R,2S,3R,5R)-2-{[Acetyl-(3,5-dichloro-phenyl)-amino]-methyl}-5-chloro-3-hydroxy-cyclopentyl)-hept-5-enoic acid] |  |  |  |
|  | 0.5 | 18 | > 10000 | 135 | 1030 | > 10000 | > 10000 | > 10000 |  | O=C(O)CCC/C=C\C[C@@H]1[C@@H](CNc2cc(Cl)cc(Cl)c2)[C@H](O)C[C@H]1Cl [compound 11, (Z)-7-{(1R,2S,3R,5R)-5-Chloro-2-[(3,5-dichloro-phenylamino)-methyl]-3-hydroxy-cyclopentyl}-hept-5-enoic acid] |  |  |  |
|  | 110 | 336 |  | > 10000 |  |  |  |  |  | O=C(O)c1ccc(CCC[C@@H]2[C@@H](CNc3cc(Cl)cc(Cl)c3)[C@H](O)C[C@H]2Cl)s1 [compound 15, 5-(3-((1R,2S,3R,5R)-5-chloro-2-((3,5-dichlorophenylamino)methyl)-3-hydroxycyclopentyl)propyl)-thiophene-2-carboxylic acid] |  |  |  |
|  | 0.11 | 0.3 |  | 59 | 828 |  |  | > 10000 | 1.7 | O=C(O)c1ccc(CCC[C@@H]2[C@@H](CSc3cc(Cl)cc(Cl)c3)[C@H](O)C[C@H]2Cl)s1 [compound 20, 5-(3-((1R,2R,3R,5R)-5-chloro-2-((3,5-dichlorophenylthio)methyl)-3-hydroxycyclopentyl)propyl)-thiophene-2-carboxylic acid] | 35 | 13.9 | 40 |
|  | 0.4 | 12 |  | 101 | > 10000 |  | 4210 |  |  | O=C(O)c1ccc(CCC[C@@H]2[C@@H](C[S+]([O-])c3cc(Cl)cc(Cl)c3)[C@H](O)C[C@H]2Cl)s1 (stereo partly drawn) [compound 22, 5-(3-((1R,2R,3R,5R)-5-chloro-2-((3,5-dichlorophenylsulfinyl)methyl)-3-hydroxycyclopentyl)propyl)-thiophene-2-carboxylic acid] |  |  |  |
|  | 1.3 | 9 |  | 850 | 2330 |  |  | > 10000 |  | O=C(O)c1ccc(CCC[C@@H]2[C@@H](CSc3cc(F)cc(F)c3)[C@H](O)C[C@H]2Cl)s1 [compound 25, 5-(3-((1R,2R,3R,5R)-5-chloro-2-((3,5-difluorophenylthio)methyl)-3-hydroxycyclopentyl)propyl)-thiophene-2-carboxylic acid] |  |  |  |
